Target: T1, HMG-CoA synthase (Rattus norvegicus, UniProt P17425)
T1 construct: The HMG-CoA synthase was eluted from the column with 0.1 M phosphate buffer (pH 7.2); from tissue; host or cells: liver of male Charles River CD rats
T1 sequence (P17425 1-520): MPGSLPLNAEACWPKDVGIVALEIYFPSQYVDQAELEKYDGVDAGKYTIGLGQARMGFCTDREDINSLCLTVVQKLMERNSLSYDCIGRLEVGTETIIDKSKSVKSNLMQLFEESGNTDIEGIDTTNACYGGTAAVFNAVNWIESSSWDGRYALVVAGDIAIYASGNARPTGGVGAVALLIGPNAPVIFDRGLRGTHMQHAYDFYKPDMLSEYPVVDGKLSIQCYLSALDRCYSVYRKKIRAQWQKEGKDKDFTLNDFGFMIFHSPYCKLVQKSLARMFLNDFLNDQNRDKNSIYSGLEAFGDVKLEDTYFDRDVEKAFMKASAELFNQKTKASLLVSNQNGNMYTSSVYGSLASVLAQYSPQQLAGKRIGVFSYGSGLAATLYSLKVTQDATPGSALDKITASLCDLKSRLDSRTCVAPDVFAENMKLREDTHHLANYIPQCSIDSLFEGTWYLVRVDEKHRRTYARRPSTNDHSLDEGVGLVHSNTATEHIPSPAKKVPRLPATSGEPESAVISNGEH
Assay: HMG-CoA Synthase Inhibition Assay
Assay type: biochemical
Settings: in vitro; HMG-CoA synthase purified from rat liver; 5 min preincubation with test compound at 30°, then 10 min with acetoacetyl-CoA and [14C]-acetyl-CoA
Experimental: The intrinsic HMG-CoA synthase inhibition activity of the compounds of this invention is measured by the standard in vitro protocol described below:
The livers from male Charles River CD rats (225-350 g) were homogenized in 0.25 M sucrose which was adjusted with phenylmethylsulfonylfluoride (PMSF) and N-p-tosyl-1-lysine chloromethyl ketone (TLCK) so that the final concentration of each was […], respectively. The homogenate was centrifuged at 15,000× g for 20 minutes, the supernatant filtered through a fine nylon screen to remove most of the fat layer and recentrifuged at 100,000× g for 1 hour. This supernatant was removed and 1 M potassium phosphate, dithiothreitol (DTT) and ethylene glycol-bis(β-aminoethyl ether)-N,N,N',N'-tetracetic acid (EGTA) added to give a final concentration of 0.1 M (pH 7.2), 0.5 mM and 0.1 mM, respectively. Solid ammonium sulfate was added to 50% saturation to the protein solution, it was centrifuged at 15,000× g and the supernatant discarded. This precipitated protein could be stored at -70° C. for at least one month with very little loss of activity. The ammonium sulfate precipitate was dissolved in an minimal mount of 0.06 M potassium phosphate buffer (pH 7.2) containing 0.5 mM dithiothreitol and 0.1 mM EGTA (referred to as 0.06 M phosphate buffer) and dialyzed overnight against 2 liters of the same buffer to remove the ammonium sulfate and to inactivate HMG-CoA lyase [Clinkenbeard, et al., J. Biol. Chem. 250, 3108-3116(1975)].
The dialyzed extract was added to a column of DEAE-52 (Whatman) which had been equilibrated with 0.06 M phosphate buffer (10 mg of protein to 1 ml bed volume of the resin). The DEAE-cellulose was eluted with 0.06 M phosphate buffer until the optical density at 280 nm was essentially zero. This fraction contained the β-ketoacetyl-CoA thiolase activity. The HMG-CoA synthase was eluted from the column with 0.1 M phosphate buffer (pH 7.2) containing 0.5 mM DTT and 0.1 mM EGTA, and was virtually free of all thiolase activity. The protein was precipitated by the addition of ammonium sulfate to give 50% saturation. This solution was stirred for 10 minutes at 4° C. and the precipitate collected by centrifugation at 15,000 rpm for 10 minutes. The supernatant was discarded and the precipitate dissolved in a minimum of 0.06 M phosphate buffer, pH 7.2 (about 10 ml) and the enzyme stored at -80° C.
Enzyme protein (ca. 24 mg) was added to a solution containing […] (pH 8.0), 11.7 μM MgCl2, 1.17 μM Ethylenediaminetetraacetic acid (EDTA), 0.58 μM dithiothreitol, and the indicated concentrations of the test compound (added as a 2 mg/ml solution in dimethylsulfoxide). The incubation took place in a volume of 0.085 ml at 30° in a shaking water bath. After 5 minutes, […] of a solution containing acetoacetyl-CoA and 0.1 μCi of 1-[^14 C]-acetyl-CoA was added to give a final concentrations of 0.1 and 0.4 μM, respectively. The incubation was continued for 10 more minutes and the reaction stopped by the addition of […] of the assay mixture to 0.2 ml of 6N HCl in a glass scintillation vial. The vial was heated for 1 hour at 120° after which time 0.2 ml more of 6N HCl was again added to each vial and the heating continued for another hour. Following this, 1.0 ml of 0.9% saline was added to each vial and finally 10 ml of scintillation liquid. Radioactivity was determined in a Packard Tri-Carb liquid scintillation counter.
Percent inhibition is calculated by the formula: [formula]
IC50 values were determined by plotting the log of the concentration of the test compound verses the percentage inhibition and fitting a straight line to the resulting data by using the least squares method.

IC50 [nM] | Compound
1900 | COCC1C(=O)OC1CCCCC(C)CC(C)(O)C(O)C(C)=CC(=O)OC (stereo not shown) [methyl 11-(3-methoxymethyl-4-oxo-2-oxetanyl)-4,5-dihydroxy-3,5,7-trimethyl-2-undecenoate]
100 | CC(=CC(=O)O)C1OC1(C)CC(C)CCCCC1OC(=O)C1CO (stereo not shown) [11-(3-hydroxymethyl-4-oxo-2-oxetanyl)-4,5-oxiranyl-3,5,7-trimethyl-2-undecenoic acid]
1100 | COC(=O)C=C(C)C(O)C(C)(O)CC(C)CCCCC1OC(=O)C1CO (stereo not shown) [methyl 11-(3-hydroxymethyl-4-oxo-2-oxetanyl)-4,5-dihydroxy-3,5,7-trimethyl-2-undecenoate]
1400 | C[C@H]1C(=O)O[C@@H]1CCCCCc1ccccc1 (relative stereo) [(CH2)5Ph, E-3-Methyl-4-(5-phenylpentyl)-2-oxetanone]
250 | CCCCCCCCCC[C@@H]1OC(=O)[C@H]1C (relative stereo) [(CH2)9CH3, E-3-Methyl-4-decyl-2-oxetanone]
1500 | C[C@H]1C(=O)O[C@@H]1CCCCCCc1ccccc1 (relative stereo) [(CH2)6 Ph, E-3-Methyl-4-(6-phenylhexyl)-2-oxetanone]
1600 | CC(=O)CC(C)CCCCC1OC(=O)C1CO (stereo not shown) [8-(3-hydroxymethyl-4-oxo-2-oxetanyl)-4-methyl-2-octanone]
5500 | COCC1C(=O)OC1CCCCC(C)CC(C)OC (stereo not shown) [8-(3-methoxymethyl-4-oxo-2-oxetanyl)-4-methyl-2-methoxyoctane]
800 | CC(CC(C)CCCCC1OC(=O)C1CO)=NNc1ccc(Br)cc1 (stereo not shown) [8-(3-hydroxymethyl-4-oxo-2-oxetanyl)-4-methyl-2-(4-bromophenylhydrazono)-octane]
1200 | C[C@H]1C(=O)O[C@@H]1CCCCCCCCCc1ccccc1 (relative stereo) [(CH2)9 Ph, E-3-methyl-4-(9-phenylnonyl)-2-oxetanone]
1600 | C=CCCCCCCCC[C@@H]1OC(=O)[C@H]1C (relative stereo) [(CH2)8 CHCH2, E-3-Methyl-4-(9-decenyl)-2-oxetanone]
1700 | COCC1C(=O)OC1CCCCC(C)CC(C)=O (stereo not shown) [8-(3-methoxymethyl-4-oxo-2-oxetanyl)-4-methyl-2-octanone]
80 | COC(=O)C=C(C)C1OC1(C)CC(C)CCCCC1OC(=O)C1CO (stereo not shown) [methyl 11-(3-hydroxymethyl-4-oxo-2-oxetanyl)-4,5-oxiranyl-3,5,7-trimethyl-2-undecenoate]
